Test results: ChEMBL document CHEMBL1157707, “Lead optimization of N-3-substituted 7-morpholinotriazolopyrimidines as dual phosphoinositide 3-kinase/mammalian target of rapamycin inhibitors: discovery of PKI-402” (J Med Chem, 2010)
pIC50: −log10 of the molar value. ≈ marks a conversion by molar mass, not a printed value.

Experiments:
[1] = tested on: PC-3; test: cells; conditions: Homo sapiens, PC-3, 72 h
[2] = target: Phosphatidylinositol 4,5-bisphosphate 3-kinase catalytic subunit alpha isoform (Homo sapiens, UniProt P42336)
[3] = Solubility at pH 7.4; assay type: physicochemical; conditions: buffer
[4] = cells; conditions: Homo sapiens, MDA-MB-361, 4 h
[5] = Metabolic stability in mouse liver microsomes assessed as half life; assay type: ADME, Microsome
[6] = Solubility at pH 3; assay type: physicochemical; conditions: buffer
[7] = in vitro; conditions: rat
[8] = target: Serine/threonine-protein kinase mTOR (Homo sapiens, UniProt P42345); test: Inhibition of mTOR by DELFIA
[9] = tested on: MDA-MB-361; test: cells; conditions: Homo sapiens, MDA-MB-361, 72 h
[10] = Metabolic stability in human liver microsomes assessed as half life; assay type: ADME, Microsome
[11] = target: Phosphatidylinositol 4,5-bisphosphate 3-kinase catalytic subunit gamma isoform (Homo sapiens, UniProt P48736); test: Inhibition of human PI3Kgamma by fluorescence polarization format assay
Chain of Phosphatidylinositol 4,5-bisphosphate 3-kinase catalytic subunit gamma isoform (P48736 whole entry, canonical isoform): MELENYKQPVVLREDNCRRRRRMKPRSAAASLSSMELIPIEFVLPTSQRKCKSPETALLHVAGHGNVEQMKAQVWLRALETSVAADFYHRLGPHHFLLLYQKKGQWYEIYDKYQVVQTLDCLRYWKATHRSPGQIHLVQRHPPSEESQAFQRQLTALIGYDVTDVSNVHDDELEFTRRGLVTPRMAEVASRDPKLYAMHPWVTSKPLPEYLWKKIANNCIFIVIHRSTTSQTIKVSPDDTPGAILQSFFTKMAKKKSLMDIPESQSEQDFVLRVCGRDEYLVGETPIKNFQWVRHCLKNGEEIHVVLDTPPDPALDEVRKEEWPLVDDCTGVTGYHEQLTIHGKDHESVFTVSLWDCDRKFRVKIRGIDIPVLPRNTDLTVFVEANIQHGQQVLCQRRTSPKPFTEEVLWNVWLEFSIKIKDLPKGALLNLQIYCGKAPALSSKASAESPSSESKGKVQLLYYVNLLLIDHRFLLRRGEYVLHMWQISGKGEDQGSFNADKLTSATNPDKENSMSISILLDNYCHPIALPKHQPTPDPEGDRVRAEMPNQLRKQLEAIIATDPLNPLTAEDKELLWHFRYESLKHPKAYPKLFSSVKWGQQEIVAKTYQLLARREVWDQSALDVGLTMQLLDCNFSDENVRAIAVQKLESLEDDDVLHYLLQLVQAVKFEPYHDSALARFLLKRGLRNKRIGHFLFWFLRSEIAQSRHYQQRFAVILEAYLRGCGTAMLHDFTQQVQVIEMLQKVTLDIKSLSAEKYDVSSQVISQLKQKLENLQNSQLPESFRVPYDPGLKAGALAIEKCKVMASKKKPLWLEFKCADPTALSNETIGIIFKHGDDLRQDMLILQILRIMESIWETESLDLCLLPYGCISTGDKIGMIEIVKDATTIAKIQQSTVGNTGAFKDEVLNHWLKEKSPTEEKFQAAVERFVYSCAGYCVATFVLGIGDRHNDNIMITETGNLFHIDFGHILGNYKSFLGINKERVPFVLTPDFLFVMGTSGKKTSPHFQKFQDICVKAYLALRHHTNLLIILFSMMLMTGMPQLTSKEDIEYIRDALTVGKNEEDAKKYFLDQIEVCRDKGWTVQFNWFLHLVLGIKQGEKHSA

Chain of Phosphatidylinositol 4,5-bisphosphate 3-kinase catalytic subunit alpha isoform (P42336 whole entry, canonical isoform): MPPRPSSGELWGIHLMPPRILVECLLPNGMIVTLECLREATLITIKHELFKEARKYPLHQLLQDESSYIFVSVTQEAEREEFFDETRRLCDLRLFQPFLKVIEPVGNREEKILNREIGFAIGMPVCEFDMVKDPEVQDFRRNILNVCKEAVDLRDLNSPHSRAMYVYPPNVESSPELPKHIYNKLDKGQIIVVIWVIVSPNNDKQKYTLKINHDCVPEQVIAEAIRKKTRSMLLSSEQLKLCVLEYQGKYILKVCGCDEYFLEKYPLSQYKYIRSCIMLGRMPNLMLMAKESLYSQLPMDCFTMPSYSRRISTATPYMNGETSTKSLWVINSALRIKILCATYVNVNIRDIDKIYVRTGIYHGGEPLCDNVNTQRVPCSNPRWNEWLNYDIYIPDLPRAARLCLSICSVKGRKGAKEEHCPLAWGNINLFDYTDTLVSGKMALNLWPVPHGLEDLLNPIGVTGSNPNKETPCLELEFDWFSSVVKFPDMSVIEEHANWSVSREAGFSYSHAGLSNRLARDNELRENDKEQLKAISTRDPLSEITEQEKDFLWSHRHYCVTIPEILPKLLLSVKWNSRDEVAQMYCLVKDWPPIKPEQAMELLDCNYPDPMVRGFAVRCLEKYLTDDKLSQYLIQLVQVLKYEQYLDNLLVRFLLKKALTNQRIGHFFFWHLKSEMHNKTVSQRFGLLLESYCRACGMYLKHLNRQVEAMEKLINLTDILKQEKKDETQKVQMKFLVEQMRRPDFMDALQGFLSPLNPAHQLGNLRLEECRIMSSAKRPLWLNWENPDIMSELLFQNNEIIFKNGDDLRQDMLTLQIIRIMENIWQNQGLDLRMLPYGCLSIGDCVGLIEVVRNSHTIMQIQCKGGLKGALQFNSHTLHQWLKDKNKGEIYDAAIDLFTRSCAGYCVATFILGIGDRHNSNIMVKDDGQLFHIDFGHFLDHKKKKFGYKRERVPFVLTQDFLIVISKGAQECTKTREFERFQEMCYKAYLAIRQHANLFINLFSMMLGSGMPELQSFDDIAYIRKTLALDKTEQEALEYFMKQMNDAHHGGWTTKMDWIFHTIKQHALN

Row | pIC50 [1] | pIC50 [2] | solubility [3] | pIC50 [4] | half-life [5] | solubility [6] | half-life ([7]; liver microsomes) | pIC50 [8] | pIC50 [9] | half-life [10] | pIC50 [11] | half-life ([7]; microsomes) | Structure (SMILES)
1 | 7.06 | 8.17 | 1 µg/mL (≈ 1.69 µM) | 7.19 | 19 min | 4 µg/mL (≈ 6.75 µM) | 23 min | 8.92 | 7.44 | 16 min | 7.66 | – | CCn1nnc2c(N3CCOCC3)nc(-c3ccc(NC(=O)Nc4ccc(C(=O)NCCc5ccccn5)cc4)cc3)nc21
2 | 6.94 | 8.62 | 100 µg/mL (≈ 175 µM) | 7.36 | 26 min | 100 µg/mL (≈ 175 µM) | 26 min | 8.66 | 7.39 | 30 min | – | – | CCn1nnc2c(N3CCOCC3)nc(-c3ccc(NC(=O)Nc4ccc(C(=O)NCCCN(C)C)cc4)cc3)nc21
3 | 7.02 | – | – | 7.33 | 27 min | – | 21 min | 8.57 | 7.17 | > 30 min | – | – | CCCCNC(=O)c1ccc(NC(=O)Nc2ccc(-c3nc(N4CCOCC4)c4nnn(CC)c4n3)cc2)cc1
4 | 7.17 | – | – | – | – | – | > 30 min | 9.29 | 7.27 | – | – | – | CC(C)n1nnc2c(N3CCOCC3)nc(-c3ccc(NC(=O)Nc4ccncc4)cc3)nc21
5 | 6.83 | – | – | – | – | – | 15 min | 8.52 | 7.14 | – | – | – | O=C(Nc1ccc(-c2nc(N3CCOCC3)c3nnn(C4CC4)c3n2)cc1)Nc1cccs1
6 | – | – | – | – | – | – | – | 6.20 | – | – | – | – | OCc1cccc(-c2nc(N3CCOCC3)c3ncn(C4CCN(Cc5ccccc5)CC4)c3n2)c1
7 | 7.24 | 8.44 | – | – | – | – | 9 min | 9.51 | 7.42 | – | – | – | CC(C)n1nnc2c(N3CCOCC3)nc(-c3ccc(NC(=O)Nc4ccc(C(N)=O)cc4)cc3)nc21

Continued, molecule first:

Row | Structure (SMILES) | pIC50 [1] | pIC50 [2] | solubility [3] | pIC50 [4] | half-life [5] | solubility [6] | half-life ([7]; liver microsomes) | pIC50 [8] | pIC50 [9] | half-life [10] | pIC50 [11] | half-life ([7]; microsomes)
8 | CCn1nnc2c(N3CCOCC3)nc(-c3ccc(NC(=O)Nc4ccc(C(=O)N(C)C)cc4)cc3)nc21 | 7.77 | 8.85 | 1 µg/mL (≈ 1.94 µM) | 8.10 | – | – | 14 min | 9.12 | 7.80 | > 30 min | – | –
9 | CCn1nnc2c(N3CCOCC3)nc(-c3ccc(NC(=O)Nc4ccncc4)cc3)nc21 | 7.31 | 8.30 | 18 µg/mL (≈ 40.4 µM) | – | – | – | 27 min | 9.20 | 7.46 | – | – | –
10 | Cn1nnc2c(N3CCOCC3)nc(-c3ccc(NC(=O)Nc4cccnc4)cc3)nc21 | 6.55 | – | 1 µg/mL (≈ 2.32 µM) | – | – | – | – | 8.53 | 6.70 | – | – | 12 min
11 | CC(C)n1nnc2c(N3CCOCC3)nc(-c3ccc(NC(=O)Nc4cccnc4)cc3)nc21 | 7.04 | – | 1 µg/mL (≈ 2.18 µM) | – | – | – | 24 min | 9.24 | 7.41 | – | – | –
12 | CC(C)n1nnc2c(N3CCOCC3)nc(-c3ccc(NC(=O)Nc4ccc(N(C)C)cc4)cc3)nc21 | 6.77 | – | – | – | – | – | 7 min | 8.80 | 7.08 | – | – | –
13 | CCn1nnc2c(N3CCOCC3)nc(-c3ccc(NC(=O)Nc4ccc(C(N)=O)cc4)cc3)nc21 | 7.19 | 8.62 | 6 µg/mL (≈ 12.3 µM) | – | – | – | – | 9.41 | 7.55 | – | 7.91 | 21 min
14 | CCn1nnc2c(N3CCOCC3)nc(-c3ccc(NC(=O)Nc4ccc(C(=O)NCCN5CCN(C)CC5)cc4)cc3)nc21 | 7.17 | 8.49 | 1 µg/mL (≈ 1.63 µM) | 7.13 | 28 min | 100 µg/mL (≈ 163 µM) | 17 min | 8.96 | 7.62 | – | – | –
